Data reported in ChEMBL document CHEMBL5647692, “The novel dual PI3K/mTOR inhibitor NVP-BGT226 displays cytotoxic activity in both normoxic and hypoxic hepatocarcinoma cells” (Oncotarget, 2015).
Activity calls are given as the source filed them. The calls are words filed in the database; no cut-off is given here.

Legend:
Mahlavu [1] = assay: Cytotoxicity against human Mahlavu cells assessed as reduction in cell viability at 0.5 to 5 uM incubated for 24 hrs by MTT assay; type: functional, cell-based; conditions: dose 0.5-5 µM
SNU-449 = assay: Cytotoxicity against human SNU-449 cells assessed as reduction in cell viability incubated for 48 hrs by MTT assay; type: functional, cell-based; conditions: SNU-449, 48 h
HepG2 = assay: Cytotoxicity against human HepG2 cells assessed as reduction in cell viability incubated for 48 hrs by MTT assay; type: functional, cell-based; conditions: HepG2, 48 h
Mahlavu [2] = assay: Induction of cell cycle arrest in human Mahlavu cells assessed as decrease in accumulation of cells in S phase incubated at 0.01 to 0.1 uM for 24 hrs by propidium iodide staining based muse cell analysis; type: functional; conditions: dose 0.01-0.1 µM
Mahlavu [3] = assay: Induction of apoptosis in human Mahlavu cells assessed as cleaved Caspase 9 level at 0.5 uM incubated for 24 hrs by Western blotting analysis; type: functional, cell-based
SNU-475 [4] = assay: Induction of apoptosis in human SNU-475 cells assessed as cleaved PARP level at 0.5 uM incubated for 24 hrs by Western blotting analysis; type: functional, cell-based
SNU-475 [5] = assay: Induction of apoptosis in human SNU-475 cells assessed as cleaved Caspase 9 level at 0.5 uM incubated for 24 hrs by Western blotting analysis; type: functional, cell-based
Hep 3B2 [6] = assay: Induction of apoptosis in human Hep3B cells assessed as cleaved Caspase 9 level at 0.5 uM incubated for 24 hrs by Western blotting analysis; type: functional, cell-based
Mahlavu [7] = assay: Induction of apoptosis in human Mahlavu cells incubated for 24 hrs by Annexin-V/7-AAD staining based muse cell analyzer method; type: functional; conditions: dose 0.01-0.5 µM
Mahlavu [8] = assay: Induction of apoptosis in human Mahlavu cells assessed as chromatin condensation under normoxia condition at 0.1 to 0.5 uM incubated for 24 hrs by DAPI staining based fluorescence microscope analysis; type: functional, cell-based; conditions: dose 0.1-0.5 µM
Mahlavu [9] = assay: Induction of apoptosis in human Mahlavu cells assessed as early apoptotic cells at 0.66 uM incubated for 24 hrs by Annexin-V/7-AAD staining based muse cell analyzer method (reference value: 6.57 %); type: functional
Mahlavu [10] = assay: Induction of apoptosis in human Mahlavu cells assessed as necrotic cells at 0.66 uM incubated for 24 hrs by Annexin-V/7-AAD staining based muse cell analyzer method (reference value: 0.67 %); type: functional
Mahlavu [11] = assay: Induction of apoptosis in human Mahlavu cells assessed as late apoptotic cells at IC50 incubated for 24 hrs in presence of Z-VAD-fmk by Annexin-V/7-AAD staining based muse cell analyzer method (reference value: 2.24 %); type: functional
Mahlavu [12] = assay: Induction of apoptosis in human Mahlavu cells assessed as necrotic cells at IC50 incubated for 24 hrs in presence of Z-VAD-fmk by Annexin-V/7-AAD staining based muse cell analyzer method (reference value: 0.67 %); type: functional
Mahlavu [13] = assay: Induction of autophagy in human Mahlavu cells assessed as upregulation of LC3A/B II level by Western blot analysis; type: functional, cell-based; conditions: dose 0.1-0.5 µM
SNU-475 [14] = assay: Induction of autophagy in human SNU-475 cells assessed as reduction in SQSTM1/p62 level by Western blot analysis; type: functional, cell-based; conditions: dose 0.1-0.5 µM
SNU-475 [15] = assay: Induction of autophagy in human SNU-475 cells assessed as increase in lipidation of LC3I to LC3II at 0.5 uM incubated for 24 hrs by Western blot analysis; type: functional, cell-based
Mahlavu [16] = assay: Induction of autophagy in human Mahlavu cells assessed as reduction in cytotoxicity at 0.5 uM incubated for 24 hrs by MTT assay; type: functional, cell-based
[17] = Inhibition of PI3K/Akt/mTOR signaling pathway in human SNU-475 cells assessed as reduction in phosphorylation of GSK3 alpha/beta incubated for 1 hr under normoxia condition by Western blotting analysis; type: cell-based; conditions: dose 0.25-1 µM
[18] = Inhibition of PI3K/Akt/mTOR signaling pathway in human Hep3B cells assessed as reduction in phosphorylation of mTORC1 substrate S6 incubated for 1 hr under normoxia condition by Western blotting analysis; type: cell-based; conditions: dose 0.25-1 µM
[19] = Inhibition of PI3K/Akt/mTOR signaling pathway in human HepG2 cells assessed as reduction in phosphorylation of Akt incubated for 1 hr under normoxia condition by Western blotting analysis; type: cell-based; conditions: dose 0.25-1 µM
[20] = Inhibition of PI3K/Akt/mTOR signaling pathway in human HepG2 cells assessed as reduction in phosphorylation of GSK3 alpha/beta incubated for 1 hr under normoxia condition by Western blotting analysis; type: cell-based; conditions: dose 0.25-1 µM
[21] = Inhibition of PI3K/Akt/mTOR signaling pathway in human SNU-449 cells assessed as reduction in phosphorylation of GSK3 alpha/beta incubated for 1 hr under normoxia condition by Western blotting analysis; type: cell-based; conditions: dose 0.25-1 µM
[22] = Inhibition of PI3K/Akt/mTOR signaling pathway in human SNU-449 cells assessed as reduction in phosphorylation of mTORC1/2 incubated for 1 hr under normoxia condition by Western blotting analysis; type: cell-based; conditions: dose 0.25-1 µM
[23] = Inhibition of PI3K/Akt/mTOR signaling pathway in human Mahlavu cells assessed as reduction in phosphorylation of Akt at 0.001 to 0.01 uM incubated for 1 hr under hypoxia condition by Western blotting analysis; type: cell-based; conditions: dose 0.001-0.01 µM
[24] = Inhibition of PI3K/Akt/mTOR signaling pathway in human SNU-475 cells assessed as reduction in phosphorylation of Akt at 0.001 to 0.01 uM incubated for 1 hr under hypoxia condition by Western blotting analysis; type: cell-based; conditions: dose 0.001-0.01 µM
[25] = Inhibition of PI3K/Akt/mTOR signaling pathway in human SNU-449 cells assessed as reduction in phosphorylation of Akt at 0.001 to 0.01 uM incubated for 1 hr under hypoxia condition by Western blotting analysis; type: cell-based; conditions: dose 0.001-0.01 µM
SNU-475 [26] = assay: Cytotoxicity against human SNU-475 cells assessed as reduction in cell viability incubated for 24 hrs under normoxia condition by MTT assay; type: functional, cell-based
SNU-475 [27] = assay: Cytotoxicity against human SNU-475 cells assessed as reduction in cell viability incubated for 24 hrs under hypoxia condition by MTT assay; type: functional, cell-based
Mahlavu [28] = assay: Induction of autophagy in human Mahlavu cells assessed as increased expression of LC3A/B II level incubated for 24 hrs under hypoxia condition by Western blot analysis; type: functional, cell-based; conditions: dose 0.1-0.5 µM
SNU-475 [29] = assay: Induction of autophagy in human SNU-475 cells assessed as increased expression of LC3A/B II level incubated for 24 hrs under hypoxia condition by Western blot analysis; type: functional, cell-based; conditions: dose 0.1-0.5 µM
SNU-475 [30] = assay: Induction of autophagy in human SNU-475 cells assessed as increase in LC3I to LC3II conversion at 0.5 uM incubated for 24 hrs under hypoxia condition by Western blot analysis; type: functional, cell-based
Mahlavu [31] = assay: Cytotoxicity against human Mahlavu cells assessed as reduction in cell viability at 0.5 uM incubated for 24 hrs in presence of chloroquine under hypoxia condition by MTT assay; type: functional, cell-based
Mahlavu [32] = assay: Cytotoxicity against human Mahlavu cells assessed as reduction in cell viability at 0.5 uM incubated for 24 hrs in presence of 3-Methyladenine under hypoxia condition by MTT assay; type: functional, cell-based
Hep 3B2 [33] = assay: Cytotoxicity against human Hep3B cells assessed as reduction in cell viability at 0.5 uM incubated for 24 hrs in presence of 3-Methyladenine under hypoxia condition by MTT assay; type: functional, cell-based

For `COc1ccc(-c2ccc3ncc4c(c3c2)n(-c2ccc(N3CCNCC3)c(C(F)(F)F)c2)c(=O)n4C)cn1` [BGT-226 FREE BASE], the Activity (Mahlavu [1]) was “Active”, the IC50 (SNU-449) was 510 nM and the IC50 (HepG2) was 1350 nM. For the same compound, the Activity (Mahlavu [2]) was “Active”, the Activity (Mahlavu [3]) was “Active” and the Activity (SNU-475 [4]) was “Active”. The Activity (SNU-475 [5]) was “Active”, the Activity (Hep 3B2 [6]) was “Active” and the Activity (Mahlavu [7]) was “Dose-Dependent Effect”. For the same compound, the Activity (Mahlavu [8]) was “Active”, the Activity (Mahlavu [9]) was 47.22% and the Activity (Mahlavu [10]) was 0%. The Activity (Mahlavu [11]) was 5.85%, the Activity (Mahlavu [12]) was 0.54% and the Activity (Mahlavu [13]) was “Dose-Dependent Effect”. For the same compound, the Activity (SNU-475 [14]) was “Dose-Dependent Effect”, the Activity (SNU-475 [15]) was “Active” and the Activity (Mahlavu [16]) was “Active”. For the same compound, the inhibition [17] was “Dose-Dependent Effect”, the inhibition [18] was “Dose-Dependent Effect” and the inhibition [19] was “Dose-Dependent Effect”. The inhibition [20] was “Dose-Dependent Effect”, the inhibition [21] was “Dose-Dependent Effect” and the inhibition [22] was “Dose-Dependent Effect”. For the same compound, the inhibition [23] was “Active”, the inhibition [24] was “Active” and the inhibition [25] was “Active”. For the same compound, the Activity (SNU-475 [26]) was “Active”, the Activity (SNU-475 [27]) was “Active” and the Activity (Mahlavu [28]) was “Dose-Dependent Effect”. For the same compound, the Activity (SNU-475 [29]) was “Dose-Dependent Effect”, the Activity (SNU-475 [30]) was “Dose-Dependent Effect” and the Activity (Mahlavu [31]) was “Active”. For the same compound, the Activity (Mahlavu [32]) was “Active” and the Activity (Hep 3B2 [33]) was “Active”.
